This note sets out measurements from patent US4521419A, “Condensed cycloaliphatic derivatives of substituted pyrido[1,2-a]pyrimidines and methods of treating allergic conditions, peptic ulcers and inhibiting gastric acid secretion with them” (Farmitalia Carlo Erba S.p.A., priority 1982, dated 1985).

The nature of data set [1]: acute toxicity (LD50) in the mouse. Particulars: in vivo, po, per os, single administration of increasing doses, measured on the seventh day after treatment, read-out: approximate acute toxicity (LD50). The procedure:
(§1) One of the preferred compounds of the invention having antisecretory activity is, for example, the compound 3-(2-methyl-benzylidene)-1,2,3,10-tetrahydro-10-oxo-10H-cyclopenta[d]pyrido[1,2-a]pyrimidine-7-carboxylic acid, which has an approximate ED25 value of 10 mg/kg in the above test in the rat, after intraduodenal administration. In view of their high therapeutic index the compounds of the invention can be safely used in medicine. For example, the approximate acute toxicity (LD50) of the compounds 3-benzylidene-1,2,3,10-tetrahydro-10-oxo-cyclopenta[d]pyrido[1,2-a]pyrimidine-7-carboxylic acid, 3-(2-methyl-benzylidene)-1,2,3,10-tetrahydro-10-oxo-10H-cyclopenta[d]pyrido[1,2-a]pyrimidine-7-carboxylic acid and 4-benzylidene-1,2,3,4-tetrahydro-11-oxo-11H-pyrido[2,1-b]quinazoline-8-carboxylic acid, in the mouse, determined with single administration of increasing doses and measured on the seventh day after the day of treatment, is per os higher than 800 mg/kg. Analogous toxicity data have been found for the other compounds of the invention.

The test system of data set [2] is gastric secretion in rats. The experiment in a line: inhibition of gastric secretion in rats (H. Shay et al.). It counts as in vivo. Particulars: rat, intraduodenal administration; read-out: antisecretory activity, approximate ED25. The procedure: as §1
Data set [3] has as its system restraint ulcers in rats. The experiment in a line: inhibition of restraint ulcers in rats (Bonfils et al.). Particulars: po, 1 h; rat, per os one hour before immobilization; approximate value; read-out: Anti-ulcerogenic activity ED50. The data set is classed as in vivo. As for the experimental part:
(§2) For example, in the above test in the rat the compound FCE 21273 gives about a 30% inhibition of RPAR reaction when administered orally at a dosage of 100 mg/kg. The compounds of the present invention, furthermore, are active on the gastroenterical system, in particular they are endowed with anti-ulcerogenic and anti-secretory activity and are therefore useful in therapy, for example, in the prevention and treatment of peptic, e.g., duodenal, gastric and esophageal, ulcers and to inhibit gastric acid secretion. The anti-ulcerogenic activity of the compounds of the invention is shown, e.g., by the fact that they are active in the test of inhibition of restraint ulcers in rats, according to the method of Bonfils et al. (Therapie, 1960, 15, 1096; Jap. J.Pharmac. 1968, 18, 9).
The tested compound was administered per os (p.o.) one hour before the immobilization.
Six Sprague-Dawley male rats (100-120 g) fasted 24 hours were used for the experiment: a square flexible small-mesh wire netting was used for the immobilization and 4 hours after the immobilization the rats were sacrificed, their stomachs were removed and the lesions counted under a dissecting microscope.

Data set [4] relates to rat peritoneal cells. The experiment in a line: A 23187 induced SRS production from rat peritoneal cells. It counts as cell-based. Particulars: in vitro, FCE 21273 at 1 mcg/ml. An excerpt: (1) test of A 23187 induced SRS production from rat peritoneal cells, according to M. K. Bach and J. R. Brashler (J. Immunol., 113, 2040, 1974);
In data set [5] the test system is Reversed Passive Arthus Reaction (RPAR). Kind of data set: Reversed Passive Arthus Reaction (RPAR) in the rat. The data set is classed as in vivo. Particulars: administered orally at 100 mg/kg.
Text: Furthermore the compounds of this invention are effective in vivo, for example, in inhibiting the Reversed Passive Arthus Reaction (RPAR) which is a model of immune-complex induced inflammatory reaction initiated by the interaction of antigen and antibody resulting in the formation of precipitating immune-complex, followed by complement fixation and accumulation of PMN in the focal site (D. K. Gemmell, J. Cottney and A. J. Lewis, Agents and Actions 9/1 page 107, 1979).
as §2

Data set [6] deals with chopped guinea-pig lung. Kind of data set: antigen induced SRS production from chopped guinea-pig lung. The data set is classed as cell-based. Particulars: Cavia porcellus, in vitro, FCE 21273 at 10 mcg/ml. An excerpt: (2) test of antigen induced SRS production from chopped guinea-pig lung, according to W. E. Brocklehurst (J. Physiol., 151, 416, 1960); and in vivo

With `Cc1ccccc1C=C1CCc2c1nc1ccc(C(=O)O)cn1c2=O` [3-(2-methyl-benzylidene)-1,2,3,10-tetrahydro-10-oxo-cyclopenta[d]pyrido[1,2-a]pyrimidine-7-carboxylic acid], the median lethal dose (LD50) at 168 h in data set [1] is > 800 mg/kg. Also, the ED25 in data set [2] was ~10 mg/kg.

On to `O=C(O)c1ccc2nc3c(c(=O)n2c1)CCC3=Cc1ccccc1` [3-benzylidene-1,2,3,10-tetrahydro-10-oxo-cyclopenta[d]pyrido[1,2-a]pyrimidine-7-carboxylic acid], for which the median lethal dose (LD50) at 168 h in data set [1] is > 800 mg/kg. In addition, the ED50 in data set [3] came to 12 mg/kg.

For `O=C(O)c1ccc2nc3c(c(=O)n2c1)CCCC3=Cc1ccccc1` [FCE 21273, 4-benzylidene-1,2,3,4-tetrahydro-11-oxo-11H-pyrido[2,1-b]quinazoline-8-carboxylic acid], the inhibition at 1 µg/mL in data set [4] was found to be 50%. Also, in data set [1], the 50% lethal dose (LD50) at 168 h is > 800 mg/kg. For the same molecule, in data set [5], the “inhibition of RPAR reaction” value is listed as ~30%. This molecule showed an inhibition at 10 µg/mL in data set [6] of 47%.
